Assays:
[1] = PET imaging of [11C]rhodamine-123 in rats; format: in vivo, rat
[2] = cited from earlier work
[3] = system: P-gp; settings: mouse, not told, iv; cited from earlier work
[4] = mouse; cited from earlier work

With `CN/C(=N/CCSCc1nc[nH]c1C)NC#N` [cimetidine] the “inhibition of OCT in kidney in vivo” value ([1]; 30 mg/kg i.v., 30 min before radiotracer, rats) was “effective inhibitor of OCT in vivo”.

In the case of `CNC(=O)C(CCN1CCC(O)(c2ccc(Cl)cc2)CC1)(c1ccccc1)c1ccccc1` [dLop, desmethyl-loperamide], the logD [2] is given as 2.60 and the pKa [2] is given as 7.2–7.3.

In the case of `COC(=O)c1ccccc1-c1c2ccc(=N)cc-2oc2cc(N)ccc12.Cl` [rhodamine-123], the “brain concentration, P-gp knockout (mdr1a(−/−)) versus wild-type mice” value [3] is listed as “about 4 fold”, the Plasma free fraction [4] is listed as 0.23 ± 0.04 and the “peak radioactivity in liver (PET)” value ([1]; DCPQ-pretreated versus untreated rats) is listed as “greater peak radioactivity in liver”.

From paper PMC3478417 (Nuclear medicine and biology, 2012)
